Columns and labels:
[1] = Initial pH screening of the composition; type: physicochemical; conditions: for I pH (initial pH), 0.10%: nitrogen compound 0.10 wt/vol % with 1.0 wt/vol % α methyl-D glucoside in medium; for I pH (initial pH), 0.50%: nitrogen compound 0.50 wt/vol % with 1.0 wt/vol % α methyl-D glucoside in medium; for I pH (initial pH), 1.00%: nitrogen compound 1.00 wt/vol % with 1.0 wt/vol % α methyl-D glucoside in medium
Source text: Each composition in Table 1 went through initial screening measures of solubility and initial pH (“I pH”). […] When a specific concentration of a nitrogen containing compound was insoluble, the initial and final pH (“F pH”) of the combined composition was not measured and accordingly are each marked as “NM.” Additionally, initial pH of the composition was checked as a screening measure. The initial pH was marked as either Low (“L”), High (“H”), or Pass (“P”). A Low initial pH corresponds to an initial pH being less than 5.5, a High initial pH corresponds to an initial pH being greater than 6.5, and a Pass initial pH corresponds to the pH being at or between 5.5-6.5. […] As part of the Therapeutic Effect Protocol, a final pH was also measured after the compositions that were tested against the Lactobacillus and E. coli.
(§1) All of the ingredients in Table 2 were combined and the pH was adjusted to 6.5. […] To evaluate the effect of various nitrogen containing therapeutic agents on the growth of bacteria, the LAPT-g media, prepared as described above, was supplemented with various nitrogen containing compound therapeutic agents to a final test concentration between 0.1 and 1.0%. As initial screening measures, solubility and initial pH of each composition were checked. If a specific composition was insoluble (as detected by visual indication of precipitates or turbidity), then no further therapeutic efficacy testing was undertaken on that composition. Additionally, if the initial pH of the composition was below 5.5 (“Low”) or was above 6.5 (“High”), then no further therapeutic efficacy testing was undertaken on that composition.

[2] = test system: L. crispatus and E. coli; experiment: Therapeutic Effect Protocol: L. crispatus / E. coli co-culture, ratio after 36 hours; type: cell-based, Lactobacillus crispatus; E. coli; conditions: for Therapeutic Efficacy Results (Lactobacillus/E. coli) 0.10%: nitrogen compound 0.10 wt/vol % with 1.0 wt/vol % α methyl-D glucoside (10:1); for Therapeutic Efficacy Results (Lactobacillus/E. coli) 0.10% / Therapeutic Efficacy Results (Lactobacillus/E. coli) 0.50% / Therapeutic Efficacy Results (Lactobacillus/E. coli) 1.00%: 36 hours anaerobic co-culture, 37° C.; for Therapeutic Efficacy Results (Lactobacillus/E. coli) 0.50%: nitrogen compound 0.50 wt/vol % with 1.0 wt/vol % α methyl-D glucoside (2:1); for Therapeutic Efficacy Results (Lactobacillus/E. coli) 1.00%: nitrogen compound 1.00 wt/vol % with 1.0 wt/vol % α methyl-D glucoside (1:1); for Therapeutic effect when ratio α methyl-D glucoside : nitrogen compound is less than 2:1 (1:1): ratio 1:1; for Therapeutic effect (ratio of Lactobacillus to E. coli greater than 2) at each concentration tested: nitrogen compound 1 wt/vol %, 0.5 wt/vol % and 0.1 wt/vol %; for Therapeutic effect of other saccharides: saccharide other than α methyl-D glucoside, by itself or with a nitrogen containing compound
Description: As used herein the term “therapeutic effect” refers to the ability of the compositions and formulations of the present invention to stimulate the growth of Lactobacillus relative E. coli measured according to the Therapeutic Effect Protocol described below. Generally, therapeutic effect is expressed as a ratio of Lactobacillus to E. coli and is desirably greater than about 2, more preferably greater than about 20 and more desirably greater than about 100.
The data in Table 1 was tested according to the Therapeutic Effect Protocol as described further herein. The nitrogen compounds were tested for their therapeutic efficacy at three different concentrations when combined with α methyl-D glucoside (1% wt/vol %). The concentrations of the nitrogen containing compounds that were tested were 1% wt/vol %, 0.5% wt/vol %, and 0.1% wt/vol %.
Colonies of L. crispatus and E. coli were prepared as follows. A colony of L. crispatus was transferred to 7 ml de Man, Rogosa & Sharpe (MRS) broth and incubated anaerobically (using BD GasPak EZ anaerobe container system with indicator) at 37° C. without shaking for 18-20 hours. A colony of E. coli was transferred to 5 ml Tryptic Soy Broth (TSB) and incubated aerobically (shaking at 100 rpm) at 37° C. for 18-20 hours.
Colonies were then inoculated as follows. Bacterial cultures were gently vortexed and 1 mL of each culture was transferred to a corresponding 2.0 mL micro-centrifuge tube and then centrifuged for two minutes at 14,500 rpm. The cultural supernatant was removed and the cell pellet was re-suspended in 1 mL of 0.95% (wt/vol %) saline. […] For L. crispatus, the pellet was re-suspended in 1 mL of 0.95% saline to achieve ˜10^7-10^8 cfu/mL. For E. coli, the pellet was re-suspended in 1 mL of 0.95% saline to achieve ˜10^8-10^9 cfu/mL.
Media were prepared as follows.
as §1
Five milliliters (5 mL) of each medium was transferred to a test tube in duplicates for subsequent inoculation. A master mixture of L. crispatus and E. coli, prepared as described above, was prepared in 1,000:1 ratio. Each (5 ml) test tube was inoculated with the master mixture to give 10^5-10^6 total CFU L. crispatus and 100-1,000 total CFU E. coli per tube.
To establish a negative control, one tube was vortexed and 100 μL was removed to determine the initial cell concentrations by serial dilutions and plating (2 plates per dilution). L. crispatus is selected on MRS agar plates incubated anaerobically at 37° C. for two days. E. coli is selected on TSA plates incubated aerobically at 37° C. for one day. The co-cultures were incubated in an anaerobic container with BD GasPaks at 37° C. for 36 hours.
The effect of the α methyl-D glucoside and the nitrogen containing compound therapeutic agents on the ratio of L. crispatus to E. coli was measured 36 hours after inoculation and a final pH of the test solutions was recorded. The co-culture tube was vortexed and 100 μL was removed to determine the final cell concentrations by serial dilutions and plating (2 plates per dilution). L. crispatus is selected on MRS agar plates incubated anaerobically at 37° C. for two days.

Compound	I pH (initial pH), 0.10% [1]	I pH (initial pH), 0.50% [1]	I pH (initial pH), 1.00% [1]	Therapeutic Efficacy Results (Lactobacillus/E. coli) 0.10% [2]	Therapeutic Efficacy Results (Lactobacillus/E. coli) 0.50% [2]	Therapeutic Efficacy Results (Lactobacillus/E. coli) 1.00% [2]	also measured
NCCc1c[nH]cn1 [Histamine]	H (a High initial pH corresponds to an initial pH being greater than 6.5)	H (a High initial pH corresponds to an initial pH being greater than 6.5)	H (a High initial pH corresponds to an initial pH being greater than 6.5)				
CNCCc1ccccc1.Cl [Methyl(2-phenylethyl)amine Hydrochloride]	P (a Pass initial pH corresponds to the pH being at or between 5.5-6.5)	P (a Pass initial pH corresponds to the pH being at or between 5.5-6.5)	P (a Pass initial pH corresponds to the pH being at or between 5.5-6.5)	10	<1.00	3	Therapeutic effect when ratio α methyl-D glucoside : nitrogen compound is less than 2:1 (1:1) ([2]; with α methyl-D glucoside): provided a therapeutic effect; Therapeutic effect when ratio α methyl-D glucoside : nitrogen compound is at least about 2:1, but not at 1:1 ([2]; with α methyl-D glucoside, ratio at least about 2:1, not 1:1): provided a therapeutic effect
O=C(O)CC[C@@H](C(=O)O)N1C(=O)c2ccccc2C1=O [n-phthaloyl-l-glutamic acid]	L (A Low initial pH corresponds to an initial pH being less than 5.5)	L (A Low initial pH corresponds to an initial pH being less than 5.5)	L (A Low initial pH corresponds to an initial pH being less than 5.5)				
N=C(N)NCCC[C@@H](N)C(=O)O [D-Arginine]				0.35			
N[C@@H](Cc1ccc(O)cc1)C(=O)O [L-Tyrosine]	P (a Pass initial pH corresponds to the pH being at or between 5.5-6.5)			2.72			
CC(C)[C@H](N)C(=O)O [L-Valine]	P (a Pass initial pH corresponds to the pH being at or between 5.5-6.5)	P (a Pass initial pH corresponds to the pH being at or between 5.5-6.5)	P (a Pass initial pH corresponds to the pH being at or between 5.5-6.5)	1.34	0.38	1.01	
N=C(N)NCCC[C@H](N)C(=O)O [L-Arginine]				0.58			
Nc1ccn([C@@H]2O[C@H](CO)[C@@H](O)[C@H]2O)c(=O)n1 [Cytidine]				>103	3.85E+03	3.09	
N[C@H](CO)C(=O)O [D-Serine]				0.06	<1.00	0.03	
NC(=O)C[C@@H](N)C(=O)O [D-Asparagine]	P (a Pass initial pH corresponds to the pH being at or between 5.5-6.5)	P (a Pass initial pH corresponds to the pH being at or between 5.5-6.5)	P (a Pass initial pH corresponds to the pH being at or between 5.5-6.5)	>3410	6.00E+06	72	Therapeutic effect (ratio of Lactobacillus to E. coli greater than 2) at each concentration tested ([2]; with α methyl-D glucoside): provided a therapeutic effect; Therapeutic effect when ratio α methyl-D glucoside : nitrogen compound is less than 2:1 (1:1) ([2]; with α methyl-D glucoside): provided a therapeutic effect
CC(=O)N[C@H]1C(O)O[C@H](CO)[C@@H](O)[C@@H]1O (stereo partly drawn) [N-Acetyl-D-Glucosamine]	P (a Pass initial pH corresponds to the pH being at or between 5.5-6.5)	P (a Pass initial pH corresponds to the pH being at or between 5.5-6.5)	P (a Pass initial pH corresponds to the pH being at or between 5.5-6.5)	8.33	211	7.00E+06	Therapeutic effect (ratio of Lactobacillus to E. coli greater than 2) at each concentration tested ([2]; with α methyl-D glucoside): provided a therapeutic effect; Therapeutic effect when ratio α methyl-D glucoside : nitrogen compound is less than 2:1 (1:1) ([2]; with α methyl-D glucoside): provided a therapeutic effect
NCC(=O)O [Glycine]				0.56	20.5	950	
CCCCCN [N-Amylamine]	H (a High initial pH corresponds to an initial pH being greater than 6.5)	H (a High initial pH corresponds to an initial pH being greater than 6.5)	H (a High initial pH corresponds to an initial pH being greater than 6.5)				
N[C@@H](CCC(=O)O)C(=O)O [L-Glutamic Acid]				2.81			
O=C[C@@H](O)[C@H](O)[C@H](O)CO [D-arabinose]							Therapeutic effect of other saccharides [2]: not able to provide a therapeutic effect
OC[C@H]1O[C@H](OC[C@H]2O[C@H](OC[C@H]3O[C@H](O[C@]4(CO)O[C@H](CO)[C@@H](O)[C@@H]4O)[C@H](O)[C@@H](O)[C@@H]3O)[C@H](O)[C@@H](O)[C@H]2O)[C@H](O)[C@@H](O)[C@H]1O [stachyose]							Therapeutic effect of other saccharides [2]: not able to provide a therapeutic effect
NCCCC(=O)O [DL-gamma-amino-n-butyric acid]				0.836	246.6	1.86	
N.O.O.O.O.O=P([O-])(O)O.[Na+] [Ammonium Sodium Phosphate]				0.25			
O=C(O)[C@@H]1CCCN1 [L-Proline]				1.88	0.55	1.25	
N[C@@H](CC(=O)O)C(=O)O [L-Aspartic Acid]				1.36			
Ammonium Citrate				>260	4.93E−04	3.15E−08	
